Numbers after ± are expanded uncertainties.
Experiments:
[1] = for mass density: 101.33 kPa, Liquid, Vibrating tube method
[2] = xn = mol fraction of the nth substance listed; settings: x2 = 0

SMILES | surface tension liquid-gas ([1]; 293.15 K) [mN/m] | mass density ([1]; 293.15 K) [kg/m3] | surface tension liquid-gas ([1]; 298.15 K) [mN/m] | mass density ([1]; 298.15 K) [kg/m3] | surface tension liquid-gas ([1]; 303.15 K) [mN/m] | mass density ([1]; 303.15 K) [kg/m3] | surface tension liquid-gas ([1]; 308.15 K) [mN/m] | mass density ([1]; 308.15 K) [kg/m3] | surface tension liquid-gas ([2]; 293.15 K) [mN/m] | surface tension liquid-gas ([2]; 298.15 K) [mN/m] | surface tension liquid-gas ([2]; 303.15 K) [mN/m] | surface tension liquid-gas ([2]; 308.15 K) [mN/m]
CCCCCC(=O)O [hexanoic acid] | 28.12 ± 0.8 | 925.38 ± 0.14 | 27.54 ± 0.79 | 921.2 ± 0.14 | 27.12 ± 0.78 | 917.02 ± 0.14 | 26.66 ± 0.78 | 912.6 ± 0.14 |  |  |  | 
O [water] + CCC(=O)O |  |  |  |  |  |  |  |  | 72.58 ± 1.4 | 71.81 ± 1.4 | 71.04 ± 1.4 | 70.23 ± 1.4
O [water] + CCCC(=O)O |  |  |  |  |  |  |  |  | 72.58 ± 1.4 | 71.81 ± 1.4 | 71.04 ± 1.4 | 70.23 ± 1.4
O [water] + CCCCC(=O)O |  |  |  |  |  |  |  |  | 72.58 ± 1.4 | 71.81 ± 1.4 | 71.04 ± 1.4 | 70.23 ± 1.4
O [water] + CCCCCC(=O)O |  |  |  |  |  |  |  |  | 72.58 ± 1.4 | 71.81 ± 1.4 | 71.04 ± 1.4 | 70.23 ± 1.4

Now from value to compound, other results behind:

surface tension liquid-gas ([1]; 293.15 K) [mN/m] | mass density ([1]; 293.15 K) [kg/m3] | surface tension liquid-gas ([1]; 298.15 K) [mN/m] | mass density ([1]; 298.15 K) [kg/m3] | surface tension liquid-gas ([1]; 303.15 K) [mN/m] | mass density ([1]; 303.15 K) [kg/m3] | surface tension liquid-gas ([1]; 308.15 K) [mN/m] | mass density ([1]; 308.15 K) [kg/m3] | SMILES | surface tension liquid-gas ([2]; 293.15 K) [mN/m] | surface tension liquid-gas ([2]; 298.15 K) [mN/m] | surface tension liquid-gas ([2]; 303.15 K) [mN/m] | surface tension liquid-gas ([2]; 308.15 K) [mN/m]
26.73 ± 0.78 | 957.61 ± 0.13 | 26.19 ± 0.77 | 952.77 ± 0.13 | 25.56 ± 0.76 | 947.94 ± 0.13 | 25.03 ± 0.75 | 942.91 ± 0.13 | CCCC(=O)O [butanoic acid] |  |  |  | 
27.13 ± 0.79 | 938.29 ± 0.3 | 26.8 ± 0.79 | 933.9 ± 0.3 | 26.23 ± 0.78 | 929.39 ± 0.3 | 25.8 ± 0.77 | 924.73 ± 0.3 | CCCCC(=O)O [pentanoic acid] |  |  |  | 
26.68 ± 0.78 | 993.42 ± 0.12 | 26.11 ± 0.77 | 988.21 ± 0.12 | 25.7 ± 0.76 | 982.88 ± 0.12 | 25.16 ± 0.76 | 977.43 ± 0.12 | CCC(=O)O [propanoic acid] |  |  |  | 

Reference: the NIST ThermoML archive (doi:10.1021/je1002829)
